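Values below derive from 48-hour exposures of cells grown in 96-well plates, with endpoints linearly interpolated between the two concentrations bracketing the appropriate inhibition level. GI50 = concentration required for 50% inhibition of growth.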 Active and inactive are the calls of the source. No stated cut-off is given here; in the data, active = GI50 up to about 1.1 µM and inactive = higher.
How the values were obtained:
Experiment in all cases: NCI tumour cell line growth inhibition, 48 h
SF-539 = system: SF-539
HOP-92 = system: HOP-92
HCT-116 = system: HCT-116
HT-29 = system: HT-29
MDA-MB-435 = system: MDA-MB-435
SF-295 = system: SF-295
HOP-62 = system: HOP-62
PC-3 = system: PC-3
SK-OV-3 = system: SK-OV-3
SK-MEL-2 = system: SK-MEL-2
CAKI-1 = system: CAKI-1
U-251 = system: U-251
UACC-257 = system: UACC-257
LOX IMVI = system: LOX IMVI
UACC-62 = system: UACC-62
M14 = system: M14
RXF 393 = system: RXF 393
SK-MEL-28 = system: SK-MEL-28
ACHN = system: ACHN
A498 = system: A498

Row | SMILES | GI50 (SF-539) | GI50 (HOP-92) | GI50 (HCT-116) | GI50 (HT-29) | GI50 (MDA-MB-435) | GI50 (SF-295) | GI50 (HOP-62) | GI50 (PC-3) | GI50 (SK-OV-3) | GI50 (SK-MEL-2) | GI50 (CAKI-1) | GI50 (U-251) | GI50 (UACC-257) | GI50 (LOX IMVI) | GI50 (UACC-62) | GI50 (M14) | GI50 (RXF 393) | GI50 (SK-MEL-28) | GI50 (ACHN) | GI50 (A498)
1 | COc1ccc(C(=O)CC(c2ccc(OC)c(OC)c2)c2c(O)oc3ccccc3c2=O)cc1OC (stereo not drawn) | > 100 µM (inactive) | 28.4 µM (inactive) | > 100 µM (inactive) | > 100 µM (inactive) | > 100 µM (inactive) | > 100 µM (inactive) | > 100 µM (inactive) | > 100 µM (inactive) | > 100 µM (inactive) | > 100 µM (inactive) | > 100 µM (inactive) | > 100 µM (inactive) | > 100 µM (inactive) | > 100 µM (inactive) | > 100 µM (inactive) | > 100 µM (inactive) | > 100 µM (inactive) | > 100 µM (inactive) | > 100 µM (inactive) | –
2 | COc1ccc(C2c3cc4c(cc3OC(N3CCCCC3)C2C)OCO4)cc1 (stereo not drawn) | > 100 µM (inactive) | – | > 100 µM (inactive) | > 100 µM (inactive) | 27 µM (inactive) | 54.6 µM (inactive) | > 100 µM (inactive) | > 100 µM (inactive) | – | > 100 µM (inactive) | 36.6 µM (inactive) | – | > 100 µM (inactive) | > 100 µM (inactive) | > 100 µM (inactive) | > 100 µM (inactive) | – | > 100 µM (inactive) | 41.2 µM (inactive) | –
3 | Oc1nc2cc3nc(O)c(O)nc3cc2nc1O | > 100 µM (inactive) | – | > 100 µM (inactive) | > 100 µM (inactive) | > 100 µM (inactive) | > 100 µM (inactive) | – | > 100 µM (inactive) | > 100 µM (inactive) | > 100 µM (inactive) | > 100 µM (inactive) | > 100 µM (inactive) | > 100 µM (inactive) | > 100 µM (inactive) | > 100 µM (inactive) | > 100 µM (inactive) | > 100 µM (inactive) | > 100 µM (inactive) | > 100 µM (inactive) | > 100 µM (inactive)
4 | COP(=O)(OC)C(C)(C)NC(=O)NC(F)(F)F | > 100 µM (inactive) | – | > 100 µM (inactive) | > 100 µM (inactive) | > 100 µM (inactive) | > 100 µM (inactive) | > 100 µM (inactive) | > 100 µM (inactive) | > 100 µM (inactive) | > 100 µM (inactive) | 0.01 µM (active) | > 100 µM (inactive) | > 100 µM (inactive) | > 100 µM (inactive) | > 100 µM (inactive) | 0.0401 µM (active) | > 100 µM (inactive) | > 100 µM (inactive) | > 100 µM (inactive) | –
5 | CCNC1=C(NC(=O)c2ccccc2)C(=O)c2ccccc2C1=O | 48.8 µM (inactive) | 55.6 µM (inactive) | 25.8 µM (inactive) | 36.6 µM (inactive) | 7.21 µM (inactive) | 32.4 µM (inactive) | 66.2 µM (inactive) | 18.2 µM (inactive) | 24 µM (inactive) | – | – | 33 µM (inactive) | 23.4 µM (inactive) | – | 20 µM (inactive) | 26.2 µM (inactive) | 24.2 µM (inactive) | 39.3 µM (inactive) | – | –
6 | Cc1cccc(Br)[n+]1[O-] | > 100 µM (inactive) | > 100 µM (inactive) | > 100 µM (inactive) | > 100 µM (inactive) | > 100 µM (inactive) | > 100 µM (inactive) | > 100 µM (inactive) | > 100 µM (inactive) | > 100 µM (inactive) | > 100 µM (inactive) | > 100 µM (inactive) | > 100 µM (inactive) | > 100 µM (inactive) | > 100 µM (inactive) | > 100 µM (inactive) | > 100 µM (inactive) | > 100 µM (inactive) | > 100 µM (inactive) | > 100 µM (inactive) | –
7 | N[C@@H](Cc1ccc2oc3cc(=O)c4ccccc4c-3nc2c1)C(=O)O | 74 µM (inactive) | > 100 µM (inactive) | > 100 µM (inactive) | 31.5 µM (inactive) | 17 µM (inactive) | 30.4 µM (inactive) | 21.9 µM (inactive) | – | > 100 µM (inactive) | – | > 100 µM (inactive) | 36.3 µM (inactive) | 18.1 µM (inactive) | 37.8 µM (inactive) | 27.4 µM (inactive) | 15.3 µM (inactive) | > 100 µM (inactive) | 62.4 µM (inactive) | 48.2 µM (inactive) | > 100 µM (inactive)
8 | O=C1CC2(CCNCC2)C(=O)N1N1CCCC1 | > 100 µM (inactive) | – | > 100 µM (inactive) | > 100 µM (inactive) | > 100 µM (inactive) | > 100 µM (inactive) | > 100 µM (inactive) | > 100 µM (inactive) | > 100 µM (inactive) | – | > 100 µM (inactive) | > 100 µM (inactive) | > 100 µM (inactive) | > 100 µM (inactive) | > 100 µM (inactive) | > 100 µM (inactive) | > 100 µM (inactive) | – | > 100 µM (inactive) | –
9 | NC(=O)NCCCC(NC(=O)OCCCCCn1ccc(=O)[nH]c1=O)C(=O)O (stereo not drawn) | > 100 µM (inactive) | > 100 µM (inactive) | > 100 µM (inactive) | > 100 µM (inactive) | > 100 µM (inactive) | > 100 µM (inactive) | > 100 µM (inactive) | > 100 µM (inactive) | > 100 µM (inactive) | > 100 µM (inactive) | > 100 µM (inactive) | > 100 µM (inactive) | > 100 µM (inactive) | > 100 µM (inactive) | > 100 µM (inactive) | > 100 µM (inactive) | > 100 µM (inactive) | > 100 µM (inactive) | > 100 µM (inactive) | –
10 | [N-]=[N+]=C(C(=O)C(=[N+]=[N-])C(=O)c1ccccc1)C(=O)c1ccccc1 | > 100 µM (inactive) | – | > 100 µM (inactive) | > 100 µM (inactive) | > 100 µM (inactive) | > 100 µM (inactive) | > 100 µM (inactive) | > 100 µM (inactive) | – | > 100 µM (inactive) | – | – | > 100 µM (inactive) | > 100 µM (inactive) | > 100 µM (inactive) | > 100 µM (inactive) | > 100 µM (inactive) | > 100 µM (inactive) | > 100 µM (inactive) | –
11 | Fc1ccc(C2(CCCN3CCc4[nH]c5cc(F)ccc5c4C3)OCCO2)cc1 | 12 µM (inactive) | 2.99 µM (inactive) | 11.5 µM (inactive) | 3.81 µM (inactive) | 13.5 µM (inactive) | 13.9 µM (inactive) | 13 µM (inactive) | – | 13.8 µM (inactive) | – | – | 11.9 µM (inactive) | 4.71 µM (inactive) | 12.6 µM (inactive) | 13.7 µM (inactive) | 2.53 µM (inactive) | 13.5 µM (inactive) | 12.6 µM (inactive) | 11.4 µM (inactive) | 14.3 µM (inactive)
12 | CC(=O)OCC12CN(C#N)C3C4COC(CC41)C1(C(=O)N(C)c4ccccc41)C32 (stereo not drawn) | – | 19.7 µM (inactive) | 19.3 µM (inactive) | 33 µM (inactive) | 26.8 µM (inactive) | 49.1 µM (inactive) | 24.6 µM (inactive) | 33.2 µM (inactive) | 34.4 µM (inactive) | 24.9 µM (inactive) | 17.3 µM (inactive) | 56.1 µM (inactive) | 16.9 µM (inactive) | 20.6 µM (inactive) | 22.6 µM (inactive) | 20.2 µM (inactive) | 12.1 µM (inactive) | 19.2 µM (inactive) | 14.3 µM (inactive) | –
13 | CCN(CC)CCn1c(=O)c2ccccc2n2c3c(=O)n(C)c(=O)n(C)c3nc12 | 0.968 µM (active) | 1.47 µM (inactive) | 1.55 µM (inactive) | 2.2 µM (inactive) | 4.71 µM (inactive) | 1.24 µM (inactive) | 0.718 µM (active) | 2.38 µM (inactive) | 1.37 µM (inactive) | 2.82 µM (inactive) | 0.252 µM (active) | 1.43 µM (inactive) | 3.46 µM (inactive) | 13.2 µM (inactive) | 0.762 µM (active) | 3.16 µM (inactive) | 5.27 µM (inactive) | 5.15 µM (inactive) | 0.25 µM (active) | –
14 | CCCCCCCC/C=C/CCCCCCCC1CC(O)C(=O)O1 (stereo not drawn) | – | 26.7 µM (inactive) | 41.1 µM (inactive) | 33.4 µM (inactive) | 38.9 µM (inactive) | 30.7 µM (inactive) | 41.4 µM (inactive) | 46.3 µM (inactive) | 79.8 µM (inactive) | – | – | 62.7 µM (inactive) | 46.7 µM (inactive) | 78.3 µM (inactive) | 63.2 µM (inactive) | 41.4 µM (inactive) | – | 72.3 µM (inactive) | 28.4 µM (inactive) | 28.4 µM (inactive)
15 | COc1ccc2c(c1)N=C1CSC(c3cc([N+](=O)[O-])ccc3Cl)N1C2 (stereo not drawn) | 28.5 µM (inactive) | 19.6 µM (inactive) | 20.1 µM (inactive) | 23.6 µM (inactive) | 15.6 µM (inactive) | 30.5 µM (inactive) | 32.1 µM (inactive) | 21.5 µM (inactive) | 25.2 µM (inactive) | 18.2 µM (inactive) | 22 µM (inactive) | 25.6 µM (inactive) | 15.8 µM (inactive) | 33 µM (inactive) | 18.8 µM (inactive) | 27.5 µM (inactive) | 19.8 µM (inactive) | 17.2 µM (inactive) | 20 µM (inactive) | –
16 | Cc1c(Cl)ccc2c(=O)c3cccc(CC(=O)O)c3oc12 | > 100 µM (inactive) | > 100 µM (inactive) | > 100 µM (inactive) | > 100 µM (inactive) | > 100 µM (inactive) | > 100 µM (inactive) | > 100 µM (inactive) | > 100 µM (inactive) | – | > 100 µM (inactive) | > 100 µM (inactive) | > 100 µM (inactive) | > 100 µM (inactive) | > 100 µM (inactive) | – | > 100 µM (inactive) | – | > 100 µM (inactive) | > 100 µM (inactive) | > 100 µM (inactive)

Source: ChEMBL document CHEMBL1201862, “PubChem BioAssay data set” (2004)
